Tested on: electrocardiogram (ECG) QT interval
Assay: 12-lead Holter ECG (QTcF, heart rate) and concentration-QT modeling
Type: in vivo
Details: for median ΔQTcF across time points: C1D1, up to 4 hours post dose
Procedure: In conjunction with the pharmacokinetic analysis, Holter monitors were used to record 12-lead continuous digital ECGs (under controlled conditions to minimize digital noise) on a baseline day (within 1-7 days prior to C1D1) and on C1D1 (Phase 1b only). Triplicate 10-second ECGs were extracted from the Holter flashcard at matched time-points on the baseline day and on C1D1 at pre-dose (0.5 hr prior to breakfast), and up to 4 hours post-dose. The PR, QRS, RR, and QT intervals were analyzed by a central ECG laboratory. Mealtimes (breakfast) were standardized across both days. The measured QT data were corrected for heart rate using the Fridericia correction (QTcF). • QTcF was calculated using the formula: Fridericia: QTcFri=QT/(RR)^1/3 (Fridericia L S. Die systolendauer im elektrokardiogramm bei normalenmenschen und bei herzkranken. Acta Med Scand. 1920; 53:469-486).
Non-compartmental PK analysis for HBI-8000 was conducted in Phase 1b using serial plasma concentration data collected up to 24 hours post-dose for the first (Cycle 1 Day 1; C1D1) dose and up to 7 hours post-dose for the ninth (C2D1) dose of HBI-8000. In conjunction with PK, Holter monitors were used to record 12-lead continuous digital ECGs (under controlled conditions to minimize digital noise) on a baseline day (within 1-7 days prior to C1D1) and on C1D1 (Phase 1b only). Triplicate 10-second ECGs were extracted from the Holter flashcard at matched time-points on the baseline day and on C1D1 up to 4 hours post-dose and the PR, QRS, RR, and QT intervals were analyzed by a Central ECG Laboratory. Meal-times (breakfast) were standardized across both days and occurred after or ≥1 hour before the scheduled extraction times for triplicate ECGs. The measured QT data were corrected for heart rate using Fridericia (QTcF).

Nc1cc(F)ccc1NC(=O)c1ccc(CNC(=O)/C=C/c2cccnc2)cc1 [HBI-8000, N-(2-amino-4-fluorophenyl)-4-[[[(2E)-1-oxo-3-(3-pyridinyl)-2-propen-1-yl]amino]methyl]benzamide]
median ΔQTcF across time points (30 mg dose): 0 to −1.5 ms | highest median decrease in QTcF (40 mg dose, 4 hours post dose): -11.5 ms | median ΔQTcF across time points (40 mg dose): −3.0 to −11.5 ms | mean upper 90% confidence limits of model-predicted ΔQTcF (20, 30 and 40 mg doses, threshold 10 ms): −1.1 to −2.8 ms | QTcF values (all patients, 20-40 mg): ≤ 450 ms | ΔQTcF values (all patients, 20-40 mg): ≤ 30 ms | Effect on QTcF (conclusion) (at the doses and regimen administered): did not prolong QTcF | change from baseline ventricular heart rate (single dose 20, 30 or 40 mg on C1D1, 0 to 4 hour): remained essentially stable
